Reference: publication PMC5400251, “Effect of quinoline based 1,2,3-triazole and its structural analogues on growth and virulence attributes of Candida albicans” (PLoS ONE, 2017)
≈ marks a conversion by molar mass, not a printed value.

Tests used:
[1] = system: C. albicans D15.9 (FLC-resistant clinical isolate); test: Broth dilution IC50 / MIC determination; format: cell-based; settings: Candida albicans; for IC50: 24 h, read-out: Anti-Candida Activity (IC50± S.D.) C. albicans D15.9
Method: (§1) Broth dilution technique was employed to determine the IC50 values of all the synthesized 1,2,3 triazole derivatives (3a-c) against C. albicans ATCC 90028, C. glabrata ATCC 90030, C. tropicalis ATCC 750 and four clinical isolates of C. albicans namely D27, D31, D39 (FLC-sensitive) and D15.9 (FLC-resistant). The strains were maintained on yeast extract:peptone:dextrose ([…]) nutrient agar (2.5%) slants at 4°C. The test compounds were dissolved in DMSO with less than 4% concentration of it in the final test volume. Different concentrations (1000… 7.8 μg/mL) of test compounds in Sabouraud dextrose (SD) broth medium were dispensed into the wells, then inoculated with the test organism with approx. 2.5 × 10^3 cells/mL and incubated at 37°C for 24 h. After incubation period, the optical density was measured at 600 nm by using Thermo Scientific Multiskan Go plate reader. […] All the experiments were done in triplicate at separate times.

Hemolytic assay = format: cell-based; settings: human, 37°C, read-out: Hemolysis of hRBCs
Method: Human blood from a healthy individual was collected in tubes containing EDTA as anti-coagulant. The erythrocytes were harvested by centrifugation for 10 min at 2000 rpm and 20°C, washed three times in PBS. To the pellet, PBS was added to yield a 10% (v/v) erythrocytes/PBS suspension. The 10% suspension was then diluted 1:10 in PBS. From each suspension, 100 μL was added in triplicate to 100 μL of a different dilution series of test compounds in the same buffer in micro centrifuge tubes. […] The tubes were incubated for 1 h at 37°C and then centrifuged for 10 min at 2000 rpm and 20°C. From the supernatant, 150 μL was transferred to a flat-bottomed microtiter plate (Tarson), and the absorbance was measured spectrophotometrically at 450 nm. The hemolysis percentage was calculated by following equation: %Hemolysis=[(A450oftestcompoundtreatedsample−A450ofbuffertreatedsample)÷(A450of1%TritonX−100treatedsample−A450ofbuffertreatedsample)]×100

ergosterol biosynthesis [2] = test: Ergosterol estimation assay; settings: 40 μg/mL of FLC, 16 h
ergosterol biosynthesis [3] = test: Ergosterol estimation assay; settings: 40 μg/mL of FLC, 16 h; remark: listed apart in the source
C. albicans = test: Disk diffusion assay, appearance of zones (strains not distinguished); format: cell-based
Method: (§2) Disk diffusion assay was performed using C. albicans ATCC 90028 (standard), the two clinical isolates, C. albicans D27 (FLC-susceptible), and C. albicans D15.9 (FLC-resistant) for the lead inhibitors 3a and 3b. The C. albicans cells were inoculated into liquid SD medium and grown over night at 37°C. The cells were then centrifuged at 3000 rpm for 5 min, washed three times with PBS and then suspended in PBS again. Approximately, 10^5 cells/mL were inoculated into molten SD agar medium at 42°C and poured into 100-mm-diameter petriplates. Sterilized 4 mm disks of Whatman paper were placed on solid agar and 1, 2, and 4 μL of 3a and 2, 4, and 8 μL of 3b from the stock solution of 10 mg/mL were spotted on the disk. […] The diameter of zone of inhibition (ZOI) was recorded in millimetres after 48 h and was compared with that of control. This experiment was repeated thrice and values were shown in terms of mean ±standard error of mean.

[4] = system: C. albicans ATCC 90028 (Standard); test: Disk diffusion assay; format: cell-based; settings: 20 μg per disk, 48 h
Method: as §2

[5] = system: C. albicans D27 (FLC-susceptible); test: Disk diffusion assay; format: cell-based; settings: Candida albicans; 20 μg per disk, 48 h; read-out: Zone of Inhibition
Method: as §2

[6] = system: C. albicans D15.9 (FLC-resistant); test: Disk diffusion assay; format: cell-based; settings: 48 h
Method: as §2

[7] = system: C. albicans D31 (FLC-sensitive clinical isolate); test: Broth dilution IC50 determination; format: cell-based; settings: Candida albicans, 24 h; read-out: Anti-Candida Activity (IC50± S.D.) C. albicans D31
Method: as §1

C. glabrata ATCC 90030 = test: Broth dilution IC50 determination; format: cell-based; settings: Nakaseomyces glabratus, ATCC90030, SD broth, 37°C, 24 h, OD 600 nm, read-out: Anti-Candida Activity (IC50± S.D.) C. glabrata ATCC90030
Method: as §1

[8] = system: C. albicans D39 (FLC-sensitive clinical isolate); test: Broth dilution IC50 determination; format: cell-based; settings: Candida albicans, 24 h; read-out: Anti-Candida Activity (IC50± S.D.) C. albicans D39
Method: as §1

C. albicans ATCC 90028 = test: Broth dilution IC50 determination; format: cell-based; settings: Candida albicans, ATCC90028, SD broth, 37°C, 24 h, OD 600 nm, read-out: Anti-Candida Activity (IC50± S.D.) C. albicans ATCC90028
Method: as §1

C. tropicalis ATCC 750 = test: Broth dilution IC50 determination; format: cell-based; settings: Candida tropicalis, ATCC750, SD broth, 37°C, 24 h, OD 600 nm, read-out: Anti-Candida Activity (IC50± S.D.) C. tropicalis ATCC750
Method: as §1

[9] = system: C. albicans D27 (FLC-sensitive clinical isolate); test: Broth dilution IC50 determination; format: cell-based; settings: Candida albicans, 24 h; read-out: Anti-Candida Activity (IC50± S.D.) C. albicans D27
Method: as §1

[10] = system: C. albicans ATCC 90028 (Standard); test: Growth assay (growth curve); format: cell-based; settings: 40 μg/mL of FLC
Method: (§3) The C. albicans cells were freshly revived by subculture on the SD agar plate. A loopful of inoculum was introduced into the SD broth and cells were grown for 16 h at 37°C before use. Approximately 2×10^3 cells/mL were then inoculated into the freshly prepared 50 mL sterile SD medium. […] At predetermined time periods (0, 2, 4, 6, 8, 10, 12, 14, 16, 18, 20 22, and 24 after incubation with agitation at 37°C), 1 mL aliquot of each sample was removed from the conical flask and growth was measured tubidometrically at 600 nm using Thermo Multiskan spectrophotometer. Optical density was recorded for each concentration against time (h).

[11] = system: C. albicans D27 (FLC-susceptible); test: Growth assay (growth curve); format: cell-based; settings: 40 μg/mL of FLC
Method: as §3

[12] = system: C. albicans D15.9 (FLC-resistant); test: Growth assay (growth curve); format: cell-based; settings: 40 μg/mL of FLC
Method: as §3

[13] = system: C. albicans ATCC 90028, C. albicans D27 (FLC-susceptible) and C. albicans D15.9 (FLC-resistant); test: Time kill curve study, three strains; format: cell-based; settings: 40 μg/mL; C. albicans standard and FLC-resistant
Method: Time-kill curves were used for testing the fungicidal or fungistatic nature of the lead inhibitors 3a and 3b. The experimental procedure was performed according to the method reported by Wang et al.. C. albicans ATCC 90028, C. albicans D27 (FLC-susceptible) and C. albicans D15.9 (FLC-resistant) strains were used as test organisms. Fluconazole was used as a positive control. Freshly prepared sterile YEPD medium was inoculated by fresh culture (approx. 2×10^3 cells) of test organisms in different conical flasks. The cells were exposed to the test compounds at 2MIC, MIC and MIC/2 values, separately. All the conical flasks having different sets of test compounds and concentrations were incubated at 37°C and 160 rpm. At predetermined time points (0, 4, 12, 24, and 48 h after incubation with agitation at 37°C), a 100-μL aliquot was removed from every solution and appropriately diluted in sterile water. A 100-μl aliquot from each dilution was spread over the YEPD agar plate. Colony counts were determined after incubation at 37°C for 24 h. All the time-kill curve experiments were conducted in duplicate and mean colony count data (log10 CFU/mL) were plotted as a function of time for each strain.

[14] = Cell proliferation assay (cytotoxicity); format: cell-based; settings: monkey, Vero cells (monkey kidney fibroblasts), positive control
Method: The in vitro cytotoxicity of compounds 3a and 3b to mammalian cells was also determined. The assay was performed in 96-well tissue culture-treated plates as described earlier. Vero cells (monkey kidney fibroblasts) were seeded to the wells of 96-well plate at a density of 25,000 cells/well and incubated for 24 h. Samples at different concentrations were added and plates were again incubated for 48 h. The number of viable cells was determined by Neutral Red assay. IC50 values were obtained from dose response curves. Doxorubicin was used as a positive control for cytotoxicity.

[15] = target: T1, plasma membrane H+ ATPase (Candida albicans, UniProt P28877); test: Proton extrusion measurement (H+ efflux); format: cell-based, C. albicans D27 (FLC-susceptible)
T1 construct: endogenous in cells; host or cells: C. albicans ATCC 90028; clinical isolates C. albicans D27 (FLC-susceptible) and D15.9 (FLC-resistant); mid-log phase whole cells
Method: (§4) The proton pumping activity of C. albicans was determined by monitoring acidification of external medium by measuring pH as describe earlier. In brief, the mid-log phase cells were harvested from SD medium by centrifugation at 3000 rpm for 15 min which is followed by three washings with phosphate buffer saline (PBS). A solution containing 0.1 M KCl and 0.1 mM CaCl2 in distilled water was prepared. Compounds 3a and 3b at the concentrations of 50 and 100 μg/mL were separately added in this solution. […] Initial pH was adjusted to 7.0 using 0.01 M HCl/NaOH. Approximately 0.2 g of cells were suspended in each set of solution. Suspension was kept in a double-jacketed glass container with constant stirring. Again, the pH of suspension was maintained as 7.0 for 1 min by using 0.01 N NaOH. The rate of H^+ extrusion was then monitored and calculated from the volume of 0.01 N NaOH consumed per min per mg weight of cells. Glucose has been reported as the stimulator of proton extrusion pump. Therefore above experiment was also repeated in the presence of 5 mM of glucose.

[16] = target: T1, plasma membrane H+ ATPase; test: Proton extrusion measurement (H+ efflux); format: cell-based, C. albicans ATCC 90028; settings: glucose 5mM alone
Method: as §4

[17] = target: T1, plasma membrane H+ ATPase; test: cell-based; design: species or system C. albicans D15.9 (FLC-resistant)
Method: as §4

T1 sequence (P28877 whole entry): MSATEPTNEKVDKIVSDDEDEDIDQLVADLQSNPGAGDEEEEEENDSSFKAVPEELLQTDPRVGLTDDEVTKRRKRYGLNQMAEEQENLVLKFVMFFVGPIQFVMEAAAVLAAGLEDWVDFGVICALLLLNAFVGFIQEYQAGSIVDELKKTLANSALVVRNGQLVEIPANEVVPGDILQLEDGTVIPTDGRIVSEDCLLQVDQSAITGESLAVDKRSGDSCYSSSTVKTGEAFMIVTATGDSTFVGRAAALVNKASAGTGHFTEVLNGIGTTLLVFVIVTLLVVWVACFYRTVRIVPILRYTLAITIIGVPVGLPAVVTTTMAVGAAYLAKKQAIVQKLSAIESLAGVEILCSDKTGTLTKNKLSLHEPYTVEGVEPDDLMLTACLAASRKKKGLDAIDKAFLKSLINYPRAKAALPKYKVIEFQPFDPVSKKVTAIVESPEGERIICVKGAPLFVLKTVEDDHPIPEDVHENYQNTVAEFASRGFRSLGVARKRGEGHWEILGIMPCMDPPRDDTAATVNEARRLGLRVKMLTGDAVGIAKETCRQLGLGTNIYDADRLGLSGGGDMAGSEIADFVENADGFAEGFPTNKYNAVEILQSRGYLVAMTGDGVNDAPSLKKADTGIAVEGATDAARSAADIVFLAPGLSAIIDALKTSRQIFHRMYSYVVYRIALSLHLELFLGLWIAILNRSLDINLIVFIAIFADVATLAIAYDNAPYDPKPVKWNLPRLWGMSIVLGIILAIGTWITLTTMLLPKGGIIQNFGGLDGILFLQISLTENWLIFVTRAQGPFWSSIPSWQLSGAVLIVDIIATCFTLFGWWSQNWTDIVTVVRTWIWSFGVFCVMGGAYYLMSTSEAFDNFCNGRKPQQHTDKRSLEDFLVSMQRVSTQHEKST

OC(Cn1cncn1)(Cn1cncn1)c1ccc(F)cc1F [FLC, Fluconazole, reference compound]
MIC [1]: > 1 µg/mL
IC50 [1]: > 1000 µg/mL
hemolysis at 1 h, 500 μg/mL (Hemolytic assay): 68.6%
Decrease in ergosterol content (ergosterol biosynthesis [2]): 96%
Decrease in ergosterol content (ergosterol biosynthesis [3]): 100%
Appearance of zone around disks (clear = fungicidal nature, turbid = fungistatic nature) (C. albicans): turbid
Zone of Inhibition [4]: 26± 1.02 mm
zone of inhibition at 20 µg/disc ([4]; Candida albicans, ATCC90028): 26 mm
zone of inhibition at 20 µg/disc [5]: 27 ± 1.35 mm
Zone of Inhibition ([6]; 20 μg per disk): 24± 0.74 mm
zone of inhibition at 20 µg/disc ([6]; Candida albicans): 24 mm
IC50 [7]: < 7.5 µg/mL
IC50 (C. glabrata ATCC 90030): 7.81 ± 0.88 µg/mL (≈ 25.5 µM)
IC50 [8]: < 7.5 µg/mL
IC50 (C. albicans ATCC 90028): 15.6 ± 0.65 µg/mL (≈ 51 µM)
IC50 (C. tropicalis ATCC 750): 8.55 ± 1.59 µg/mL (≈ 27.9 µM)
IC50 [9]: < 7.5 µg/mL
Time by which lag phase was over [10]: 16 h
Time by which lag phase was over [11]: 20 h
Time by which lag phase was over [12]: 16 h
CFU/mL, treated versus untreated cells [13]: no significant difference in CFU/mL

COc1cccc2c1C(=O)c1c(O)c3c(c(O)c1C2=O)C[C@@](O)(C(=O)CO)C[C@@H]3O[C@H]1C[C@H](N)[C@H](O)[C@H](C)O1 [Doxorubicin]
IC50 at 48 h [14]: > 5 µg/mL

c1ccc(Cn2cc(COc3cccc4ccccc34)nn2)cc1 [Compound 3c, 1-Benzyl-4-((naphthalen-1-yloxy)methyl)-1H-1,2,3-triazole]
IC50 [1]: 66.9 ± 1.84 µg/mL (≈ 212 µM)
IC50 [7]: 119 ± 2.94 µg/mL (≈ 377 µM)
IC50 (C. glabrata ATCC 90030): 107 ± 1.41 µg/mL (≈ 339 µM)
IC50 [8]: 62.2 ± 1.07 µg/mL (≈ 197 µM)
IC50 (C. albicans ATCC 90028): 91.2 ± 0.76 µg/mL (≈ 289 µM)
IC50 (C. tropicalis ATCC 750): 38.2 ± 0.83 µg/mL (≈ 121 µM)
IC50 [9]: 43.7 ± 1.18 µg/mL (≈ 139 µM)

OC[C@H]1OC(O)[C@H](O)[C@@H](O)[C@@H]1O (stereo partly shown) [Glucose, reference compound]
Increase of the rate of H+ extrusion ([15]; 5 mM of glucose): 24%
Range of relative H+ efflux rate ([15]; glucose 5mM alone): 40.00 ± 2.0 ×10^−6 mol min^−1 mg cells^−1
Range of relative H+ efflux rate [16]: 54.95 ± 2.7 ×10^−6 mol min^−1 mg cells^−1
Increase of the rate of H+ extrusion ([17]; 5 mM of glucose): 36%
Range of relative H+ efflux rate ([17]; glucose 5mM alone): 43.33 ± 2.1 ×10^−6 mol min^−1 mg cells^−1
